Entries after “also recorded” stand apart in the source; their conditions may differ. Where two headings read alike, the source gives them in different places.
Experiments:
[1] = tested on: ASP-1 release; conditions: hookworm larvae, cited from earlier work
[2] = tested on: A. caninum L3 larvae; conditions: in vivo; cited from earlier work
[3] = tested on: secretion of the VAP-1-Myc fusion protein; experiment: Secretion assay: immunoblot (anti-Myc) of VAP-1-Myc in conditioned axenic media of worms bearing the vap-1::myc transgene; assay type: in vivo, C. elegans; conditions: various concentrations, 16 hours, 24 well plates, dose-dependent fashion (FIG. 8)
Method: Worms (either animals bearing the vap-1::myc transgene or unc-119 (e2498) mutants rescued with plasmid pPD#MM016B as a negative control) were cultured in S basal medium (recipe below) containing HB101 bacteria as a food source for 4–5 days as described below. The worms were separated from the media by centrifugation and washed several times in S basal media. Worms were then resuspended in 50 ml of axenic media (recipe below) and cultured overnight (˜20 h). A vessel containing only axenic media without worms was maintained under identical conditions as a control. The worm density in both the vap-1::myc and unc-119 cultures was approximately 50,000 per ml. It was estimated that 50–70% of the worms carry the transgene.
After overnight incubation in axenic media, the worms and media were separated by centrifugation (see below for details) and the media were concentrated using Centriprep 30 concentrators (see below for details). […]
To determine the effect of 4,7 phenanthroline on secretion of the VAP-1-Myc fusion protein, worms (either transformation control or bearing the vap-1::myc transgene) were cultured in 24 well plates (in a manner similar to the 96 well scaledown protocol described below) in axenic media in the presence of various concencentrations of 4,7 phenanthroline for 16 hours. […] VAP-1-Myc fusion protein was detected with anti-Myc antibody as described above.

SMILES: c1cnc2ccc3ncccc3c2c1 [4,7-phenanthroline]
- release of ASP-1 [1]: known inhibitor; also recorded: blocked
- release of ASP-1 ([1]; listed as 4,7 phenanthroline): known inhibitor
- resumption of larval hookworm development [2]: blocked
- secretion of the VAP-1-Myc fusion protein [3]: inhibited

— patent US7064243B2, “Screens and assays for agents useful in controlling parasitic nematodes” (Cambria Biosciences LLC, priority 2001, dated 2006)
